# Experimental data as given in ChEMBL document CHEMBL1141838, “Application of lipase-catalyzed regioselective esterification in the preparation of digitonin derivatives” (J Nat Prod, 1999).
# Test: Toxic hemolytic activity against RBC assessed as hemolytic index
# Type: ADME, cell-based
# Conditions: erythrocyte
row,SMILES,Activity
1,C[C@@H]1CC[C@@]2(OC1)O[C@H]1[C@@H](O)[C@H]3[C@@H]4CC[C@H]5C[C@@H](O[C@@H]6O[C@H](CO)[C@H](O[C@@H]7O[C@H](CO)C(O)[C@H](O[C@@H]8OC[C@@H](O)[C@H](O)[C@H]8O)[C@H]7O[C@@H]7O[C@H](CO)[C@H](O)[C@H](O[C@@H]8O[C@H](CO)[C@@H](O)[C@H](O)[C@H]8O)[C@H]7O)[C@H](O)[C@H]6O)[C@H](O)C[C@]5(C)[C@H]4CC[C@]3(C)[C@H]1[C@@H]2C (some centres undefined) [DIGITONIN],135000
2,CC(=O)OC[C@H]1O[C@@H](O[C@H]2[C@@H](O)[C@@H](CO)O[C@@H](O[C@H]3[C@H](O[C@@H]4C[C@@H]5CC[C@H]6[C@@H]7[C@H](O)[C@@H]8O[C@]9(CC[C@@H](C)CO9)[C@@H](C)[C@@H]8[C@@]7(C)CC[C@@H]6[C@@]5(C)C[C@H]4O)O[C@H](CO)[C@H](O[C@@H]4O[C@H](CO)[C@@H](O)[C@H](O[C@@H]5OC[C@@H](OC(C)=O)[C@H](O)[C@@H]5O)[C@H]4O)[C@@H]3O)[C@@H]2O)[C@H](O)[C@@H](O)[C@@H]1O,43000
3,CC(=O)O[C@@H]1CO[C@@H](O[C@@H]2[C@@H](O)[C@H](O[C@@H]3[C@H](O)[C@@H](O[C@@H]4O[C@H](CO)[C@H](O)[C@H](O[C@@H]5O[C@H](CO)[C@@H](O)[C@H](O)[C@H]5O)[C@H]4O)[C@H](O[C@@H]4C[C@@H]5CC[C@H]6[C@@H]7[C@H](O)[C@@H]8O[C@]9(CC[C@@H](C)CO9)[C@@H](C)[C@@H]8[C@@]7(C)CC[C@@H]6[C@@]5(C)C[C@H]4O)O[C@@H]3CO)O[C@H](CO)[C@H]2O)[C@@H](O)[C@H]1O,52000
4,CC(=O)OC[C@H]1O[C@@H](O[C@H]2[C@@H](O)[C@@H](CO)O[C@@H](O[C@H]3[C@H](O[C@@H]4C[C@@H]5CC[C@H]6[C@@H]7[C@H](O)[C@@H]8O[C@]9(CC[C@@H](C)CO9)[C@@H](C)[C@@H]8[C@@]7(C)CC[C@@H]6[C@@]5(C)C[C@H]4O)O[C@H](CO)[C@H](O[C@@H]4O[C@H](CO)[C@@H](O)[C@H](O[C@@H]5OC[C@@H](O)[C@H](O)[C@@H]5O)[C@H]4O)[C@@H]3O)[C@@H]2O)[C@H](O)[C@@H](O)[C@@H]1O,40000
